Laboratory results published in patent publication US20220242846A1, “ISOINDOLINONE COMPOUNDS” (Monte Rosa Therapeutics AG, priority 2019, published 2022).
Read-outs that look alike come from different tables or passages of the source.

What was measured:
[1] = test system: Human mammary epithelial cells (HMEC) engineered to express EGFP alone (non myc); assay: 3D spheroid assay, non myc-HMEC (CellTiterGlo3D viability); type: cell-based; conditions: 120 h, 3D spheroids, 5 days with compound, read-out: Code: EC50 value in the non myc-HMEC assay
Experimental: (§1) 3D Spheroid Experiments—HMEC
(§2) Human mammary epithelial cells (HMEC) were engineered to express either c-myc tagged with EGFP or EGFP alone (non myc) (analogous but distinct from Kessler J D et al, Science. 2012 Jan. 20; 335(6066):348-53. doi: 10.1126/science.1212728; Hsu T Y et al, Nature. 2015 Sep. 17; 525(7569):384-8. doi: 10.1038/nature14985). The engineered cells were seeded at 1000 (myc) or 4000 (non myc) cells/well in a 384 ultra-low attachment plate in a total volume of 40 µL, HMEC cell culture media (DMEM/F12+10% HI-FBS+15 mM HEPES+0.5 ug/ml Hydrocortisone+10 ug/ml Insulin+20 ng/ml EGF). Plates were spun at 1200 rpm for 5 minutes at room temperature to ensure that cells have gathered in the middle of the well and incubated at 37° C. for 48 hrs before firing with compounds. On Day 2 (48 h post seeding) cells were imaged (brightfield and EGFP fluorescence) using the Celigo imaging cytometer prior to firing compounds. For primary screens, compounds were added at three concentrations (1.25, 10 and 30 uM) in a volume of 120 nL using the ECHO acoustic dispenser and spun at 2000 rpm for 2 minutes at room temperature before incubating at 37° C. for 5 days. […] On Day 7, prior to measuring cell viability using CellTiterGlo3D, cells were imaged (brightfield and EGFP fluorescence) on the Celigo imaging cytometer. The CellTiterGlo3D reagent is added at 30uL/well and incubated at room temperature for 30mins After 30mins of incubation, luminescence readings were recorded using the Perkin Elmer EnVision reader.

[2] = molecular target: T1, Full length wild-type cereblon CRBN (Homo sapiens, UniProt Q96SW2); assay: Fluorescence polarization (FP) assay indicating cereblon binding; conditions: CRBN 80.0 nM, fluorescent probe 5 nM, FP measured after 12 hours; read-out: rFP IC50
T1 construct: Full length wild-type cereblon CRBN (80.0 nM, 10 μL) was incubated in assay buffer
How it was run: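 Full-length wild-type human CRBN (80.0 nM) preincubated 30 min at room temperature with compound (12-point curve, 300-0.937 or 3000-9.3 nM) in HEPES pH 8.0, NaCl, TCEP, Tween 20. Thalidomide-based Cy5-type probe then added at 5 nM final; FP read after 12 h (ex 590, em 675 nm), normalized to DMSO, IC50 derived.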

GSPT1 = GSPT1 (Homo sapiens, UniProt P15170+Q96SW2); assay: Immunofluorescence assay for GSPT1 degradation in CAL-51 cells; type: cell-based; set-up: CAL-51 cells were purchased from DSMZ (cat. Number ACC302); endogenous in cells; host or cells: CAL-51 (DSMZ ACC302); conditions: compound treatment 6 hours, read-out: Code: activity for GSPT1 degradation (DC50)
How it was run: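 CAL-51 cells on fibronectin-coated plates treated 6 h with compound (30 μM to 0.1 nM); fixed, stained with anti-GSPT1/Alexa-488, phalloidin and DAPI, imaged by high-content microscopy. Mean GSPT1 intensity per cell normalized to controls; DC50 by non-linear regression.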

[3] = test system: Human mammary epithelial cells (HMEC) engineered to express c-myc tagged with EGFP; assay: 3D spheroid assay, myc-HMEC (CellTiterGlo3D viability); type: cell-based
Experimental: as §1, §2

[4] = Homo sapiens, HMEC, 120 h, 3D spheroids, 5 days with compound, read-out: Code: EC50 value in the myc-HMEC assay
[5] = myc-HMEC 3D spheroids (compounds with code D and E), 5 days, read-out: EC50

Sequence of GSPT1 (P15170 whole entry): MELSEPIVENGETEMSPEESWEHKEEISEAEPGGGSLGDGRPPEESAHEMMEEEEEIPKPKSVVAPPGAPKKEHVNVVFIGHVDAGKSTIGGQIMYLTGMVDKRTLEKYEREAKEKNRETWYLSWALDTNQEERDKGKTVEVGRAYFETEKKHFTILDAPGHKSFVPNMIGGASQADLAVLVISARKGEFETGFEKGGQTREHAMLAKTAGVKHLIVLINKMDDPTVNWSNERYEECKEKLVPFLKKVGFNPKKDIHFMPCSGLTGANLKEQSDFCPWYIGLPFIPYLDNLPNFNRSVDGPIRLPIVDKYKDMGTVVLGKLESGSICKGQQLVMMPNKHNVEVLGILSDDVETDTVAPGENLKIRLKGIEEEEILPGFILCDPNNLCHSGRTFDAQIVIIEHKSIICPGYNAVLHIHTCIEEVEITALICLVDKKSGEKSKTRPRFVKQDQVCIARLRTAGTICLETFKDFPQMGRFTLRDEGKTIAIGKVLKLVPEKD
Sequence of GSPT1 (Q96SW2 whole entry): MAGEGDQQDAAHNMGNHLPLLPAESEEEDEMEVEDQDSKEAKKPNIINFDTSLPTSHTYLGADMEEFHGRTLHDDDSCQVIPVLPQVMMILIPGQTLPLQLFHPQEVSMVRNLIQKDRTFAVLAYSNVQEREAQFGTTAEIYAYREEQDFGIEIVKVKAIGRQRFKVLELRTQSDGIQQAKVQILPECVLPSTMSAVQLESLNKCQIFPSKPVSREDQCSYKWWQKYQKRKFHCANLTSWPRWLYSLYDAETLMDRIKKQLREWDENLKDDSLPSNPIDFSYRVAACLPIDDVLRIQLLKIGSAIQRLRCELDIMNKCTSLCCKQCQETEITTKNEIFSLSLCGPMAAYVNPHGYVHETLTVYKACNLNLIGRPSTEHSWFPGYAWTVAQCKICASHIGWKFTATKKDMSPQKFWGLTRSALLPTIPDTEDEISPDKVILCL
Sequence of GSPT1 (Q16531 2-1140 partner limits assumed): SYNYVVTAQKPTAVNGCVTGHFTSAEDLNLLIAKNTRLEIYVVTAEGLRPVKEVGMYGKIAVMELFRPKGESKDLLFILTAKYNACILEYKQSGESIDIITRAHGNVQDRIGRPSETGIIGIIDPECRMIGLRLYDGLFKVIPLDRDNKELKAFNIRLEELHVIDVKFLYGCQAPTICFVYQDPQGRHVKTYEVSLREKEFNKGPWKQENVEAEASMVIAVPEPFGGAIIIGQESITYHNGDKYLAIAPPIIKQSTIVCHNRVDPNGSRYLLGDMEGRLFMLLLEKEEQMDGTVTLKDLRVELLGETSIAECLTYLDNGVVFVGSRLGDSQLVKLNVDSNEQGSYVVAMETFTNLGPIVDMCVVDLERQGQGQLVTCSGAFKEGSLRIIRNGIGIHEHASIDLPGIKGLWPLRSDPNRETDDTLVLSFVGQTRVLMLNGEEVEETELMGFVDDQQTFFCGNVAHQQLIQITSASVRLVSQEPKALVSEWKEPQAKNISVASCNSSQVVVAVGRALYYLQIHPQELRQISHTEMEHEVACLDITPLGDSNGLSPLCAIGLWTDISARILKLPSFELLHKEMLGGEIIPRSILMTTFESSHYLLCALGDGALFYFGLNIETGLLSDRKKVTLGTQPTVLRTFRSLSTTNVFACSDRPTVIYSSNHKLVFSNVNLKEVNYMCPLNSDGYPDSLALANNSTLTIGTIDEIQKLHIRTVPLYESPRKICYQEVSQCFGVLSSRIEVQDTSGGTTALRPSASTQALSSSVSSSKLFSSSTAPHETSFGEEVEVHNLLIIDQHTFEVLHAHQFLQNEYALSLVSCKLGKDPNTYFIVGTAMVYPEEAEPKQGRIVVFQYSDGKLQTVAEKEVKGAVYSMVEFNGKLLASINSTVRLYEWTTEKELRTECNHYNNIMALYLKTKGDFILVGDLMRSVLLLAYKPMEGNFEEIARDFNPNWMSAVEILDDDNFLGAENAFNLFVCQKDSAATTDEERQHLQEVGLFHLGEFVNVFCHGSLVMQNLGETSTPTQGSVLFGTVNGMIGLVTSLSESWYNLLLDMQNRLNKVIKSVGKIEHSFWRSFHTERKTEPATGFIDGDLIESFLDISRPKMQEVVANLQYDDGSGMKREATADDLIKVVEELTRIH
T1 sequence (Q96SW2 whole entry): as the sequence (Q96SW2 whole entry) above

Row | Structure (SMILES) | IC50 [2] | DC50 (GSPT1) | EC50 [1] | EC50 [3, 4] | EC50 [3, 5]
1 | O=C1CCC(N2Cc3ccc(CNC(=O)Nc4ccccc4Cl)cc3C2=O)C(=O)N1 (stereo not shown) [Compound 4] | 0.483 µM | > 0.3 µM | > 10 µM | > 2 µM | –
2 | COc1ccccc1NC(=O)NCc1ccc2c(c1)C(=O)N(C1CCC(=O)NC1=O)C2 (stereo not shown) [Compound 7] | 0.324 µM | > 0.3 µM | > 10 µM | > 2 µM | –
3 | O=C1CCC(N2Cc3ccc(CNC(=O)Nc4ccccc4)cc3C2=O)C(=O)N1 (stereo not shown) [Compound 1] | 1.04 µM | > 0.3 µM | > 10 µM | > 2 µM | –
4 | CCc1ccc(NC(=O)NCc2ccc3c(c2)C(=O)N(C2CCC(=O)NC2=O)C3)cc1 (stereo not shown) [Compound 18] | 0.552 µM | > 0.3 µM | > 10 µM | > 2 µM | –
5 | CC(C)NC(=O)NCc1ccc2c(c1)C(=O)N(C1CCC(=O)NC1=O)C2 (stereo not shown) [Compound 12] | 0.96 µM | > 0.3 µM | > 10 µM | > 2 µM | –
6 | CCNC(=O)NCc1ccc2c(c1)C(=O)N(C1CCC(=O)NC1=O)C2 (stereo not shown) [Compound 15] | 0.902 µM | > 0.3 µM | > 10 µM | > 2 µM | –
7 | CCOc1ccc(NC(=O)NCc2ccc3c(c2)C(=O)N(C2CCC(=O)NC2=O)C3)cc1 (stereo not shown) [Compound 16] | 0.817 µM | > 0.3 µM | > 10 µM | > 2 µM | –
8 | COc1ccc(NC(=O)NCc2ccc3c(c2)C(=O)N(C2CCC(=O)NC2=O)C3)cc1 (stereo not shown) [Compound 5] | 0.339 µM | > 0.3 µM | > 10 µM | > 2 µM | –

The next lines start with results.

Row | IC50 [2] | DC50 (GSPT1) | Structure (SMILES) | EC50 [1] | EC50 [3, 4] | EC50 [3, 5]
9 | 0.477 µM | > 0.3 µM | COc1ccc(CNC(=O)NCc2ccc3c(c2)C(=O)N(C2CCC(=O)NC2=O)C3)cc1 (stereo not shown) [Compound 52] | > 10 µM | > 2 µM | –
10 | 0.747 µM | > 0.3 µM | Cc1cccc(NC(=O)NCc2ccc3c(c2)C(=O)N(C2CCC(=O)NC2=O)C3)c1C (stereo not shown) [Compound 44] | > 10 µM | > 2 µM | –
11 | 0.471 µM | > 0.3 µM | C[C@@H](NC(=O)NCc1ccc2c(c1)C(=O)N(C1CCC(=O)NC1=O)C2)c1ccccc1 (stereo partly shown) [Compound 54] | > 10 µM | > 2 µM | –
12 | 0.364 µM | > 0.3 µM | COc1cccc(CNC(=O)NCc2ccc3c(c2)C(=O)N(C2CCC(=O)NC2=O)C3)c1 (stereo not shown) [Compound 53] | > 10 µM | > 2 µM | –
13 | 0.54 µM | > 0.3 µM | O=C1CCC(N2Cc3ccc(CNC(=O)NCC4CCCCC4)cc3C2=O)C(=O)N1 (stereo not shown) [Compound 58] | > 10 µM | > 2 µM | –
14 | 0.472 µM | > 0.3 µM | O=C1CCC(N2Cc3ccc(CNC(=O)Nc4ccc(Cl)cc4Cl)cc3C2=O)C(=O)N1 (stereo not shown) [Compound 45] | > 10 µM | > 2 µM | –
15 | 0.595 µM | 0.1 to 0.3 µM | CCc1cccc(NC(=O)NCc2ccc3c(c2)C(=O)N(C2CCC(=O)NC2=O)C3)c1 (stereo not shown) [Compound 31] | > 10 µM | 0.4 to 2 µM | 0.457 µM
16 | 0.492 µM | > 0.3 µM | Cc1cccc(CNC(=O)NCc2ccc3c(c2)C(=O)N(C2CCC(=O)NC2=O)C3)c1 (stereo not shown) [Compound 63] | > 10 µM | > 2 µM | –
17 | 0.381 µM | ≤ 0.1 µM | Cc1cc(NC(=O)NCc2ccc3c(c2)C(=O)N(C2CCC(=O)NC2=O)C3)ccc1Cl (stereo not shown) [Compound 61] | > 10 µM | ≤ 0.4 µM | 0.092 µM
